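Method: 48-hour compound exposure of cells in 96-well plates, five concentrations, linear interpolation of endpoints. Abbreviation: GI50, concentration required for 50% inhibition of growth. TGI: total growth inhibition.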
Legend:
Assay in all cases: growth of human tumour cells (NCI), 48 h
NCI-H23 lung = test system: NCI-H23 lung
OVCAR-4 ovarian = test system: OVCAR-4 ovarian
MCF7 breast = test system: MCF7 breast
OVCAR-5 ovarian = test system: OVCAR-5 ovarian
MDA-MB-435 = test system: MDA-MB-435
BT-549 breast = test system: BT-549 breast
SK-MEL-5 melanoma = test system: SK-MEL-5 melanoma
KM12 colon = test system: KM12 colon
T-47D breast = test system: T-47D breast
ACHN renal = test system: ACHN renal
COLO 205 colon = test system: COLO 205 colon
MOLT-4 leukemia = test system: MOLT-4 leukemia
HOP-62 NSCLC = test system: HOP-62 NSCLC
EKVX NSCLC = test system: EKVX NSCLC
MDA-MB-468 breast = test system: MDA-MB-468 breast
DU-145 prostate = test system: DU-145 prostate
SK-MEL-2 melanoma = test system: SK-MEL-2 melanoma
CAKI-1 renal = test system: CAKI-1 renal
SK-MEL-28 melanoma = test system: SK-MEL-28 melanoma
SF-295 CNS = test system: SF-295 CNS
786-0 renal = test system: 786-0 renal
TK-10 renal = test system: TK-10 renal
SNB-19 CNS = test system: SNB-19 CNS
SNB-75 CNS = test system: SNB-75 CNS
HOP-92 NSCLC = test system: HOP-92 NSCLC
U251 CNS = test system: U251 CNS
SK-OV-3 ovarian = test system: SK-OV-3 ovarian
A549 NSCLC = test system: A549 NSCLC
SW-620 colon = test system: SW-620 colon
MDA-MB-231 breast = test system: MDA-MB-231 breast
SF-268 CNS = test system: SF-268 CNS
LOX IMVI melanoma = test system: LOX IMVI melanoma
SN12C renal = test system: SN12C renal
CCRF-CEM leukemia = test system: CCRF-CEM leukemia
MALME-3M melanoma = test system: MALME-3M melanoma
HCT-116 colon = test system: HCT-116 colon
NCI-H522 lung = test system: NCI-H522 lung
HS 578T breast = test system: HS 578T breast
SR leukemia = test system: SR leukemia
HCC-2998 colon = test system: HCC-2998 colon
RXF 393 renal = test system: RXF 393 renal
NCI-H226 lung = test system: NCI-H226 lung
HCT-15 colon = test system: HCT-15 colon
A498 renal = test system: A498 renal
UACC-62 melanoma = test system: UACC-62 melanoma
OVCAR-8 ovarian = test system: OVCAR-8 ovarian
UO-31 renal = test system: UO-31 renal
PC-3 prostate = test system: PC-3 prostate
IGROV1 ovarian = test system: IGROV1 ovarian
M14 melanoma = test system: M14 melanoma
HL-60(TB) leukemia = test system: HL-60(TB) leukemia
SF-539 CNS = test system: SF-539 CNS
OVCAR-3 ovarian = test system: OVCAR-3 ovarian
NCI-H460 lung = test system: NCI-H460 lung
HT29 colon = test system: HT29 colon
NCI/ADR-RES ovarian = test system: NCI/ADR-RES ovarian
UACC-257 melanoma = test system: UACC-257 melanoma

COc1cc2c3c(n(CCCNC(C)C)c(=O)c2cc1OC)-c1nc2c(cc1C3=O)OCO2
GI50 (NCI-H23 lung): 0.587 µM
TGI (NCI-H23 lung): 12.4 µM
GI50 (OVCAR-4 ovarian): 17.1 µM
TGI (OVCAR-4 ovarian): 39.9 µM
GI50 (MCF7 breast): 0.101 µM
TGI (MCF7 breast): 3.07 µM
GI50 (OVCAR-5 ovarian): 13 µM
TGI (OVCAR-5 ovarian): 26.3 µM
GI50 (MDA-MB-435): 2.16 µM
TGI (MDA-MB-435): 10.9 µM
GI50 (BT-549 breast): 4.17 µM
TGI (BT-549 breast): 23.1 µM
GI50 (SK-MEL-5 melanoma): 1.39 µM
TGI (SK-MEL-5 melanoma): 5.35 µM
GI50 (KM12 colon): 12.8 µM
TGI (KM12 colon): 28.6 µM
GI50 (T-47D breast): 4.76 µM
TGI (T-47D breast): 28.6 µM
GI50 (ACHN renal): 1.5 µM
TGI (ACHN renal): 13.2 µM
GI50 (COLO 205 colon): 3.98 µM
TGI (COLO 205 colon): 23 µM
GI50 (MOLT-4 leukemia): 0.0457 µM
TGI (MOLT-4 leukemia): 2.13 µM
GI50 (HOP-62 NSCLC): 0.474 µM
TGI (HOP-62 NSCLC): 18.5 µM
GI50 (EKVX NSCLC): 10.7 µM
TGI (EKVX NSCLC): 23.6 µM
GI50 (MDA-MB-468 breast): 0.492 µM
TGI (MDA-MB-468 breast): 6.08 µM
GI50 (DU-145 prostate): 1.05 µM
TGI (DU-145 prostate): 16.6 µM
GI50 (SK-MEL-2 melanoma): 21.1 µM
TGI (SK-MEL-2 melanoma): 40.6 µM
GI50 (CAKI-1 renal): 2.43 µM
TGI (CAKI-1 renal): 19.2 µM
GI50 (SK-MEL-28 melanoma): 4.94 µM
TGI (SK-MEL-28 melanoma): 18.2 µM
GI50 (SF-295 CNS): 0.348 µM
TGI (SF-295 CNS): 15 µM
GI50 (786-0 renal): 1.55 µM
TGI (786-0 renal): 2.98 µM
GI50 (TK-10 renal): 19.6 µM
TGI (TK-10 renal): 35.4 µM
GI50 (SNB-19 CNS): 2 µM
TGI (SNB-19 CNS): 18.7 µM
GI50 (SNB-75 CNS): 0.825 µM
TGI (SNB-75 CNS): 12.4 µM
GI50 (HOP-92 NSCLC): 10.6 µM
TGI (HOP-92 NSCLC): 24.9 µM
GI50 (U251 CNS): 0.588 µM
TGI (U251 CNS): 19.8 µM
GI50 (SK-OV-3 ovarian): 2.04 µM
TGI (SK-OV-3 ovarian): 19.2 µM
GI50 (A549 NSCLC): 2.52 µM
TGI (A549 NSCLC): 24.2 µM
GI50 (SW-620 colon): 0.724 µM
TGI (SW-620 colon): 21.3 µM
GI50 (MDA-MB-231 breast): 1.42 µM
TGI (MDA-MB-231 breast): 2.81 µM
GI50 (SF-268 CNS): 1.17 µM
TGI (SF-268 CNS): 23.4 µM
GI50 (LOX IMVI melanoma): 1.01 µM
TGI (LOX IMVI melanoma): 2.21 µM
GI50 (SN12C renal): 10.6 µM
TGI (SN12C renal): 23.5 µM
GI50 (CCRF-CEM leukemia): 0.0437 µM
TGI (CCRF-CEM leukemia): 1.32 µM
GI50 (MALME-3M melanoma): 1.54 µM
TGI (MALME-3M melanoma): 3.01 µM
GI50 (HCT-116 colon): 1.04 µM
TGI (HCT-116 colon): 2.28 µM
GI50 (NCI-H522 lung): 0.768 µM
TGI (NCI-H522 lung): 27.6 µM
GI50 (HS 578T breast): 11.8 µM
TGI (HS 578T breast): 33 µM
GI50 (SR leukemia): 0.359 µM
TGI (SR leukemia): 2.77 µM
GI50 (HCC-2998 colon): 9.38 µM
TGI (HCC-2998 colon): 21.5 µM
GI50 (RXF 393 renal): 2.26 µM
TGI (RXF 393 renal): 14.7 µM
GI50 (NCI-H226 lung): 2.22 µM
TGI (NCI-H226 lung): 13.3 µM
GI50 (HCT-15 colon): 1.21 µM
TGI (HCT-15 colon): 2.61 µM
GI50 (A498 renal): 12.2 µM
TGI (A498 renal): 27 µM
GI50 (UACC-62 melanoma): 9.84 µM
TGI (UACC-62 melanoma): 23.6 µM
GI50 (OVCAR-8 ovarian): 5.28 µM
TGI (OVCAR-8 ovarian): 24.9 µM
GI50 (UO-31 renal): 5.86 µM
TGI (UO-31 renal): 20.4 µM
GI50 (PC-3 prostate): 2.72 µM
TGI (PC-3 prostate): 21.9 µM
GI50 (IGROV1 ovarian): 14.8 µM
TGI (IGROV1 ovarian): 30.7 µM
GI50 (M14 melanoma): 3.42 µM
TGI (M14 melanoma): 18.1 µM
GI50 (HL-60(TB) leukemia): 3.77 µM
TGI (HL-60(TB) leukemia): 21.2 µM
GI50 (SF-539 CNS): 1.52 µM
TGI (SF-539 CNS): 7.26 µM
GI50 (OVCAR-3 ovarian): 14.3 µM
TGI (OVCAR-3 ovarian): 28.3 µM
GI50 (NCI-H460 lung): 0.294 µM
TGI (NCI-H460 lung): 11.6 µM
GI50 (HT29 colon): 1.35 µM
TGI (HT29 colon): 22.7 µM
GI50 (NCI/ADR-RES ovarian): 1.52 µM
TGI (NCI/ADR-RES ovarian): 3.25 µM
GI50 (UACC-257 melanoma): 13.8 µM
TGI (UACC-257 melanoma): 29 µM

Source: PubChem BioAssay (NCI)
